# Source: patent EP1873150A1, “Fluorinated indoleamides useful as ligands of the ORL-1 receptor” (NIKEM RESEARCH S.R.L., priority 2006, dated 2008)
# Like-named read-outs stand apart in the source and are kept apart here.
# Key:
# CYP2C19 = target: T1, CYP2C19 (Homo sapiens, UniProt P33261); experiment: Interaction with Cytochrome P450 isoenzymes: CYP2C19; format: in vitro ADME; details: Supersomes expressing human CYP2C19, substrate CEC, fluorometric; read-out: CYP450 interaction (IC50, uM) 2C19
# T1 construct: purchased Gentest Corporation, Woburn, MA (Supersomes); host or cells: baculovirus-insect cells
# T1 sequence (P33261 whole entry): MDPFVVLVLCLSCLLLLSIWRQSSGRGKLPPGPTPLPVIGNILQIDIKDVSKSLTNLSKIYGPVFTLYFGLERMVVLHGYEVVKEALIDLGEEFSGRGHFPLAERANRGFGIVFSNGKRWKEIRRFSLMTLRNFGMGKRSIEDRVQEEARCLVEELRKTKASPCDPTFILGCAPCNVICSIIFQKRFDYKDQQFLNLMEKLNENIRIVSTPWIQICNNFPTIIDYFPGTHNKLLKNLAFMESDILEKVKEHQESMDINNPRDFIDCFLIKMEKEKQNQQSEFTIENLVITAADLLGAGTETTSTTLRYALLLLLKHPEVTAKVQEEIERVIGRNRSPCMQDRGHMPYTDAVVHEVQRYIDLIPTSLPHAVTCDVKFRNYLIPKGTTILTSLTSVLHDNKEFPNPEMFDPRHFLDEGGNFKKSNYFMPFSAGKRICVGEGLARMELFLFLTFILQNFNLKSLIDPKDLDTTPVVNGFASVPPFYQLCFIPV
# Protocol: (§1) The assay was performed in a 96-well microtiter plates as described in Stresser et al., Drug Metab. Dispos. 28, 1440 (2000). Microsomes from baculovirus-insect cells (Supersomes, Gentest Corporation, Woburn, MA) expressing human cytochrome P450 isoforms (CYP1A2, CYP2C9, CYP2C19, CYP2D6 and CYP3A4) were utilized. Test compounds or standard inhibitors (dissolved in DMSO or acetonitrile) were serially diluted in a solution containing 16.3 uM NADP^+, 0.83 mM glucose-6-phosphate, 0.83 mM MgCl2, 0.4 U/mL of glucose-6-phosphate dehydrogenase and 0.1 mg/mL microsomal protein prepared from wild-type baculovirus-infected insect cells. Appropriate control wells without inhibitor and without microsomes were also added. The plates were then pre-warmed at 37°C for 10 min, and the reaction was started by adding pre-warmed enzyme/substrate mix (cytochrome P450 isoforms with their specific substrates in a 0.35 M potassium phosphate buffer at pH 7.4). Specific substrates were 3-cyano-7-ethoxycoumarin (CEC) for CYP1A2 and CYP2C19, 7-methoxy-4-trifluoromethylcoumarin (MFC) or dibenzylfluorescein (DBF) for CYP2C9, 3-[2-(N,N-diethyl-N-methylamino)ethyl]-7-methoxy-4-methylcoumarin (AMMC) for CYP2D6 and 7-benzyloxy-4-(trifluoromethyl)-coumarin (BFC) for CYP3A4. Reaction was terminated at various times, depending on the assays, by addition of a 4:1 acetonitrile:0.5 M Tris base solution. Known inhibitors for each isoenzyme (furafylline for CYP1A2, sulfaphenazole for CYP2C9, tranylcypromine for CYP2C19, quinidine for CYP2D6 and ketoconazole for CYP3A4) were tested in all assays as positive controls. Plates were read on a fluorometer (Fluoroskan Ascent, ThermoElectron Corporation, Helsinki, Finland) at the appropriate emission/excitation wavelengths. Median inhibitory concentration (IC50) was determined by nonlinear regression (GraFit software, Erithacus Software, Horley, UK).
# CYP3A4 = target: T2, CYP3A4 (Homo sapiens, UniProt P08684); experiment: Interaction with Cytochrome P450 isoenzymes: CYP3A4; format: in vitro ADME; details: Supersomes expressing human CYP3A4, substrate BFC, fluorometric; read-out: CYP450 interaction (IC50, uM) 3A4
# T2 construct: purchased Gentest Corporation, Woburn, MA (Supersomes); host or cells: baculovirus-insect cells
# T2 sequence (P08684 whole entry): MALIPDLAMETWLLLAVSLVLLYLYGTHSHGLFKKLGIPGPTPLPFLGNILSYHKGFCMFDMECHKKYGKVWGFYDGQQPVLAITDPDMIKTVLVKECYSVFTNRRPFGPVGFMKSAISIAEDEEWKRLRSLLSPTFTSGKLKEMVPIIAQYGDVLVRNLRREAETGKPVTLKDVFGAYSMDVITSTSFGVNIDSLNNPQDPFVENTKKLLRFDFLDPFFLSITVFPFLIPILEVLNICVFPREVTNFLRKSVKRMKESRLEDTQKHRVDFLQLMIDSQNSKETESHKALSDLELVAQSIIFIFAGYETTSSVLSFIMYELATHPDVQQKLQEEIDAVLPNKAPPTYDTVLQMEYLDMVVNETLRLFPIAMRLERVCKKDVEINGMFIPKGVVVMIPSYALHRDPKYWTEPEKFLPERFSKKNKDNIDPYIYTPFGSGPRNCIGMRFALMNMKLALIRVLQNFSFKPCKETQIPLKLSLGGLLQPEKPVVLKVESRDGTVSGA
# Protocol: as §1
# CYP2C9 = target: T3, CYP2C9 (Homo sapiens, UniProt P11712); experiment: Interaction with Cytochrome P450 isoenzymes: CYP2C9; format: in vitro ADME; details: Supersomes expressing human CYP2C9, substrate MFC or DBF, fluorometric; read-out: CYP450 interaction (IC50, uM) 2C9
# T3 construct: purchased Gentest Corporation, Woburn, MA (Supersomes); host or cells: baculovirus-insect cells
# T3 sequence (P11712 whole entry): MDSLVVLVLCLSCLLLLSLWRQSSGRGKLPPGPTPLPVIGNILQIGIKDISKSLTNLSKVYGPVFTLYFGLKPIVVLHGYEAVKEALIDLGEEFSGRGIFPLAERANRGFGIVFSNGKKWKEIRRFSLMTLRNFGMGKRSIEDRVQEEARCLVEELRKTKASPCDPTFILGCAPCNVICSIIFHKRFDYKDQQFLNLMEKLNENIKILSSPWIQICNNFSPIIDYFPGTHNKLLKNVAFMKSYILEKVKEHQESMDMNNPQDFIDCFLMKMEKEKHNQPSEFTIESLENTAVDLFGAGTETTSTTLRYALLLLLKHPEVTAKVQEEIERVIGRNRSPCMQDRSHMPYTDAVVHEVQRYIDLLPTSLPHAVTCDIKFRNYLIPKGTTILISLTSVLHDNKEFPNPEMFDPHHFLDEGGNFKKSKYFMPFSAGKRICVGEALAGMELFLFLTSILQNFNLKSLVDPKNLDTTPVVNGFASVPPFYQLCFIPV
# Protocol: as §1
# ORL-1 receptor = ORL-1 receptor (Homo sapiens, UniProt P41146); experiment: ORL-1 receptor binding studies, radioligand [3H]-AcRYYRWK-NH2
# Sequence of ORL-1 receptor (P41146 whole entry): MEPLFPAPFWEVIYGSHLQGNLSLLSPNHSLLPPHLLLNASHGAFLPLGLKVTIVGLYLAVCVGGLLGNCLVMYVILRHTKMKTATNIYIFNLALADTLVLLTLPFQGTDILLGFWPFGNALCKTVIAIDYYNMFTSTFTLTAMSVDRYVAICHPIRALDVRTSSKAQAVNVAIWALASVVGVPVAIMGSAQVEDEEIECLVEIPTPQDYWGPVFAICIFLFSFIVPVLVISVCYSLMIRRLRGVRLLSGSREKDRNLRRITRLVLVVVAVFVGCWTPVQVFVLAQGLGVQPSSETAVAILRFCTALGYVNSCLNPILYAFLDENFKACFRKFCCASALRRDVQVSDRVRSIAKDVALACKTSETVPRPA
# Protocol: The receptor binding studies were carried out on 96-well plates; the incubation medium was Tris HCl pH 7.4 (4°C) containing MgCl2 (5 mM), EGTA (0.2 mM), BSA (0.1 %), with a final volume of […], using as radioligand [^3H]-AcRYYRWK-NH2 (Amersham, 103 Ci/mmol). The samples were incubated at 37°C for 120 min. and were then filtered off via Whatman GF/B filters pre-treated with 0.2% polyethylenimine. The filters were washed three times with Tris HCl buffer pH 7.4 (4°C). The radioactivity present on the filters was measured using a Packard Top Count microplate scintillation counter.
# CYP1A2 = target: T4, CYP1A2 (Homo sapiens, UniProt P05177); experiment: Interaction with Cytochrome P450 isoenzymes: CYP1A2; format: in vitro ADME; details: Supersomes expressing human CYP1A2, substrate CEC, fluorometric; read-out: CYP450 interaction (IC50, uM) 1A2
# T4 construct: purchased Gentest Corporation, Woburn, MA (Supersomes); host or cells: baculovirus-insect cells
# T4 sequence (P05177 1-516): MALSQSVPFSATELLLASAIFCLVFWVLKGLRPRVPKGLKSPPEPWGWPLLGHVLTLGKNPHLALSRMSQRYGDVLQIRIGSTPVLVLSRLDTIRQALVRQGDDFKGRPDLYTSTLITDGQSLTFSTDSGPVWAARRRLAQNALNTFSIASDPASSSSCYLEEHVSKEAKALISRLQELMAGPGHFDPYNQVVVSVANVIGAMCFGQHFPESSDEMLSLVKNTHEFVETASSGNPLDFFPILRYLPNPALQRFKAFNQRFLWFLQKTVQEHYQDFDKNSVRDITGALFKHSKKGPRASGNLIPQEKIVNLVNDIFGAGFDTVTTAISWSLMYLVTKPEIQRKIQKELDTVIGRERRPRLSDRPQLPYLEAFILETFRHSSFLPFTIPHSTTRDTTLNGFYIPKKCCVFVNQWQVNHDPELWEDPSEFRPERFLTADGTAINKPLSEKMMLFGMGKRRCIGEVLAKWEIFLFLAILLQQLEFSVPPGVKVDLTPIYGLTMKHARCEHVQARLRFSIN
# Protocol: as §1
# CYP2D6 = target: T5, CYP2D6 (Homo sapiens, UniProt P10635); experiment: Interaction with Cytochrome P450 isoenzymes: CYP2D6; format: in vitro ADME; details: Supersomes expressing human CYP2D6, substrate AMMC, fluorometric; read-out: CYP450 interaction (IC50, uM) 2D6
# T5 construct: purchased Gentest Corporation, Woburn, MA (Supersomes); host or cells: baculovirus-insect cells
# T5 sequence (P10635 whole entry): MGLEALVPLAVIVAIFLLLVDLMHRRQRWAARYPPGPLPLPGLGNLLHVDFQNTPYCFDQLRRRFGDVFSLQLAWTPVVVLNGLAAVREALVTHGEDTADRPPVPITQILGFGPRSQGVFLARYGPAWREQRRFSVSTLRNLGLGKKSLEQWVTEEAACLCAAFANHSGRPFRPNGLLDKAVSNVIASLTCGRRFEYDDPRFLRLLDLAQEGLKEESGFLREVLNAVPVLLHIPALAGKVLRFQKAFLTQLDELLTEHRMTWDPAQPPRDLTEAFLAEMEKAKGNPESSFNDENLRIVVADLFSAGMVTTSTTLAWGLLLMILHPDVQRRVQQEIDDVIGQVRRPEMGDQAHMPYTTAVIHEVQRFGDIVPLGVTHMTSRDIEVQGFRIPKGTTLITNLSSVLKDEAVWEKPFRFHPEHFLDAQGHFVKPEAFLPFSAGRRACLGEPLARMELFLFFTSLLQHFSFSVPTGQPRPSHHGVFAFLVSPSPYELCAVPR
# Protocol: as §1
# [1] = radioligand [3H]-AcRYYRWK-NH2, 37°C, 120 min, read-out: ORL-1 Binding affinity (Ki)
Structure (SMILES),IC50 (CYP2C19) [µM],IC50 (CYP3A4) [µM],IC50 (CYP2C9) [µM],Ki (ORL-1 receptor; [1]) [µM],IC50 (CYP1A2) [µM],IC50 (CYP2D6) [µM],Ki (ORL-1 receptor) [µM]
"CC(=O)N(C)C1CCN(C(=O)c2[nH]c3ccccc3c2CN2CCC(c3c(F)cccc3Cl)CC2)C1 (stereo not shown) [Example 3, N-(1-{3-[4-(2-Chloro-6-fluoro-phenyl)-piperidin-1-ylmethyl]-1 H-indole-2-carbonyl}-pyrrolidin-3-yl)-N-methyl-acetamide]",47.5,54.7,25.9,0.0042,> 100,8.6,
"NC(=O)Cn1c(C(=O)N2CCOCC2)c(CN2CCC(c3c(F)cccc3Cl)CC2)c2ccccc21 [Example 7, 2-[3-[4-(2-Chloro-6-fluoro-phenyl)-piperidin-1-ylmethyl]-2-(morpholine-4-carbonyl)-indol-1-yl]-acetamide]",25.1,13.3,20.2,0.0048,> 100,16.8,
"Fc1cccc(F)c1C1CCN(Cc2c(-c3ccccc3)[nH]c3ccccc23)CC1 [53 (W02005005411), reference compound]",17.4,13,10.7,,11.8,< 0.1,
"CN1CCN(C(=O)Cn2c(-c3ccccc3)c(CN3CCC(c4c(F)cccc4F)CC3)c3ccccc32)CC1 [Example 15, 2-{3-[4-(2,6-Difluoro-phenyl)-piperidin-1-ylmethyl]-2-phenyl-indol-1-yl}-1-(4-methyl-piperazin-1-yl)-ethanone]",38.3,6.2,74.4,0.0082,> 100,34.7,
"NC(=O)Cn1c(C(=O)N2CCOCC2)c(CN2CCC(c3c(F)cccc3F)CC2)c2ccccc21 [Example 8, 2-[3-[4-(2,6-Difluoro-phenyl)-piperidin-1-ylmethyl]-2-(morpholine-4-carbonyl)-indol-1-yl]-acetamide]",70.1,25.6,31.2,,86,6.2,
"O=C(Cn1c(-c2ccccc2)c(CN2CCC(c3c(F)cccc3Cl)CC2)c2ccccc21)N1CCOCC1 [Example 12, 2-{3-[4-(2-Chloro-6-fluoro-phenyl)-piperidin-1-ylmethyl]-2-phenyl-indol-1-y}-1-morpholin-4-yl-ethanone]",> 100,18.2,> 100,0.0028,> 100,36.6,
"O=C(Cn1c(-c2ccccc2)c(CN2CCC(c3c(F)cccc3F)CC2)c2ccccc21)N1CCOCC1 [Example 13, 2-{3-[4-(2,6-Difluoro-phenyl)-piperidin-1-ylmethyl]-2-phenyl-indol-1-yl}-l-morpholin-4-yl-ethanone]",62.6,38.1,98.6,,> 100,94.6,0.018
"O=C(c1[nH]c2ccccc2c1CN1CCC(c2c(F)cccc2F)CC1)N1CCN(CCOCCO)CC1 [Example 6, {3-[4-(2,6-Difluoro-phenyl)-piperidin-1-ylmethyl]-1H-indol-2-yl}-{4-[2-(2-hydroxy-ethoxy)-ethyl]-piperazin-1-yl}-methanone]",> 100,98.2,> 100,0.034,> 100,5.1,
"Cc1c(CN2CCC(c3c(F)cccc3Cl)CC2)c2ccccc2n1CC(=O)NC1CCN(C)CC1 [Example 11, 2-{3-[4-(2-Chloro-6-fluoro-phenyl)-piperidin-1-ylmethyl]-2-methyl-indol-1-yl}-N-(1-methyl-piperidin-4-yl)-acetamide]",47.4,9.6,> 100,,> 100,20.7,0.0055
